Legend:
[1] = species on record: Rattus norvegicus; experiment: Serotonin (5-Hydroxytryptamine) 5-HT2, Non-Selective Eurofins-Panlabs radioligand binding assay; type: protein assay; settings: Compound concentration 10.0 uM
[2] = target: D(1A) dopamine receptor (Homo sapiens) (UniProt P21728); settings: Compound concentration 10.0 uM
[3] = species on record: Rattus norvegicus; experiment: Inhibition of Glycine, Strychnine-Sensitive at 10 µM in the Eurofins-Panlabs radioligand binding assay (Eurofins_assay_239000); settings: Compound concentration 10.0 uM
[4] = target: monoamine oxidase MAO-B (Homo sapiens, UniProt P27338); experiment: Inhibition of Monoamine Oxidase MAO-B at compound concentration of 10.0 uM in the Eurofins-Panlabs enzyme assay (Eurofins_assay_140120); set-up: substrate with concentration 50 uM Kynuramine, incubation time 60 min, incubation temperature 37 C; settings: recombinant human MAO-B expressed in insect Hi5 cells, probe kynuramine (50 uM), compound concentration 10 uM
[5] = species on record: Homo sapiens; experiment: Estrogen ERbeta Eurofins-Panlabs radioligand binding assay; settings: Compound concentration 10.0 uM
[6] = target: Somatostatin receptor type 5 (Homo sapiens) (UniProt P35346); experiment: Somatostatin sst5 Eurofins-Panlabs radioligand binding assay; settings: Compound concentration 10.0 uM
[7] = target: D(2) dopamine receptor (Homo sapiens) (UniProt P14416); settings: Compound concentration 10.0 uM
[8] = target: Glutamate receptor 2 (Homo sapiens) (UniProt P42262); settings: Rattus norvegicus; Compound concentration 10.0 uM
[9] = target: Endothelin-converting enzyme 1 (Homo sapiens) (UniProt P42892); experiment: Peptidase, Endothelin Converting Enzyme-1 (ECE-1) Eurofins-Panlabs enzyme assay; settings: Compound concentration 10.0 uM
[10] = target: Caspase-6 (Homo sapiens) (UniProt P55212); experiment: Peptidase, CASP6 (Caspase 6) Eurofins-Panlabs enzyme assay; set-up: substrate with concentration; settings: Compound concentration 10.0 uM
[11] = target: Type-2 angiotensin II receptor (Homo sapiens) (UniProt P50052); experiment: Angiotensin AT2 Eurofins-Panlabs radioligand binding assay; type: protein assay; settings: Compound concentration 10.0 uM
[12] = target: Adenosine receptor A3 (Homo sapiens) (UniProt P0DMS8); settings: Compound concentration 10.0 uM
[13] = species on record: Homo sapiens; experiment: Cholecystokinin CCK2 (CCKB) Eurofins-Panlabs radioligand binding assay; set-up: ligand concentration 0.072 nM, non-specific ligand with concentration 1 µM Sincalide, incubation time 3 h, incubation temperature 25 °C; settings: Compound concentration 10.0 uM
[14] = species on record: Homo sapiens; experiment: Inhibition of Nicotinic Acetylcholine at compound concentration of 10.0 uM in the Eurofins-Panlabs radioligand binding assay (Eurofins_assay_258590); type: protein-complex assay; settings: Compound concentration 10.0 uM
[15] = target: Prostaglandin E2 receptor EP1 subtype (Homo sapiens) (UniProt P34995); experiment: Prostanoid EP1 Eurofins-Panlabs radioligand binding assay; settings: Compound concentration 10.0 uM
[16] = target: C-C chemokine receptor type 1 (Homo sapiens) (UniProt P32246); experiment: Chemokine CCR1 Eurofins-Panlabs radioligand binding assay; settings: Compound concentration 10.0 uM
[17] = target: Tyrosine 3-monooxygenase (Homo sapiens) (UniProt P07101); experiment: Tyrosine Hydroxylase Eurofins-Panlabs enzyme assay; set-up: substrate with concentration; settings: Rattus norvegicus; Compound concentration 10.0 uM
[18] = species on record: Homo sapiens; settings: Compound concentration 10.0 uM
[19] = target: Estrogen receptor (Homo sapiens) (UniProt P03372); settings: Compound concentration 10.0 uM
[20] = target: Cannabinoid receptor 2 (Homo sapiens) (UniProt P34972); settings: Compound concentration 10.0 uM
[21] = target: Thyrotropin-releasing hormone receptor (Homo sapiens) (UniProt P34981); experiment: Thyrotropin Releasing Hormone (TRH) Eurofins-Panlabs radioligand binding assay; set-up: ligand concentration 3 nM; settings: Rattus norvegicus; Compound concentration 10.0 uM
[22] = target: Adenosine receptor A2a (Homo sapiens) (UniProt P29274); settings: Compound concentration 10.0 uM
[23] = target: T1, 5-hydroxytryptamine receptor 1A (Homo sapiens) (UniProt P08908); settings: Compound concentration 10.0 uM
T1 sequence (whole entry): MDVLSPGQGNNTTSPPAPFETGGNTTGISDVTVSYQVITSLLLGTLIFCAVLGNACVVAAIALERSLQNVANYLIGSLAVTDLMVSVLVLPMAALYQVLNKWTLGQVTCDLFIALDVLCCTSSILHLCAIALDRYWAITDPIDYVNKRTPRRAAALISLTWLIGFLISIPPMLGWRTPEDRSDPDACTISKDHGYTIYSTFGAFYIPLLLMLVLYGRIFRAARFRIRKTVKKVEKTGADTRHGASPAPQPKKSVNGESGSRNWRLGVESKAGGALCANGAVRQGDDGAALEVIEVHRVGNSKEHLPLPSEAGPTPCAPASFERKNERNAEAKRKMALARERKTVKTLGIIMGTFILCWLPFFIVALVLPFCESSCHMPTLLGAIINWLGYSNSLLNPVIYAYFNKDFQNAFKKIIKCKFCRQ

Prostaglandin E2 receptor EP1 subtype (Homo sapiens), sequence (P34995 whole entry): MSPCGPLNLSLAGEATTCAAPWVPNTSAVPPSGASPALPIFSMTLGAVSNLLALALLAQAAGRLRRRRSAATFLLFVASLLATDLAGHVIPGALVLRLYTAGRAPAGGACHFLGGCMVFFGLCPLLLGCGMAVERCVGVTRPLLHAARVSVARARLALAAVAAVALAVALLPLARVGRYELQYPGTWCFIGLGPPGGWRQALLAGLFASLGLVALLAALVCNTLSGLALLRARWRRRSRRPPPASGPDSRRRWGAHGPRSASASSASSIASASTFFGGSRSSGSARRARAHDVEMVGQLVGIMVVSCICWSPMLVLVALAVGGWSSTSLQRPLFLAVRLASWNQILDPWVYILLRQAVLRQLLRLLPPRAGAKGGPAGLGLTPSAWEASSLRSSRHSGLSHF
D(1A) dopamine receptor (Homo sapiens), sequence (P21728 whole entry): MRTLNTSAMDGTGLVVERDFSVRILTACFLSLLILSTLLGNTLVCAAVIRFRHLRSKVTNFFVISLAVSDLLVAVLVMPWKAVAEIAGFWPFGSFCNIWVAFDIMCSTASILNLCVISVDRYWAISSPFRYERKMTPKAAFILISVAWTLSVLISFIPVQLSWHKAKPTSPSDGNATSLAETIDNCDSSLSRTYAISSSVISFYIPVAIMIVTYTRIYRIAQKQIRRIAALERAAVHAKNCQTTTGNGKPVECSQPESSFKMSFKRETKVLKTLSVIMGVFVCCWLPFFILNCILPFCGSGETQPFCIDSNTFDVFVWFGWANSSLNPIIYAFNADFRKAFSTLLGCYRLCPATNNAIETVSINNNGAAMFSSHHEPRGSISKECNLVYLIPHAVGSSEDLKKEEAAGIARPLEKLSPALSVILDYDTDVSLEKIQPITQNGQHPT
Glutamate receptor 2 (Homo sapiens), sequence (P42262 whole entry): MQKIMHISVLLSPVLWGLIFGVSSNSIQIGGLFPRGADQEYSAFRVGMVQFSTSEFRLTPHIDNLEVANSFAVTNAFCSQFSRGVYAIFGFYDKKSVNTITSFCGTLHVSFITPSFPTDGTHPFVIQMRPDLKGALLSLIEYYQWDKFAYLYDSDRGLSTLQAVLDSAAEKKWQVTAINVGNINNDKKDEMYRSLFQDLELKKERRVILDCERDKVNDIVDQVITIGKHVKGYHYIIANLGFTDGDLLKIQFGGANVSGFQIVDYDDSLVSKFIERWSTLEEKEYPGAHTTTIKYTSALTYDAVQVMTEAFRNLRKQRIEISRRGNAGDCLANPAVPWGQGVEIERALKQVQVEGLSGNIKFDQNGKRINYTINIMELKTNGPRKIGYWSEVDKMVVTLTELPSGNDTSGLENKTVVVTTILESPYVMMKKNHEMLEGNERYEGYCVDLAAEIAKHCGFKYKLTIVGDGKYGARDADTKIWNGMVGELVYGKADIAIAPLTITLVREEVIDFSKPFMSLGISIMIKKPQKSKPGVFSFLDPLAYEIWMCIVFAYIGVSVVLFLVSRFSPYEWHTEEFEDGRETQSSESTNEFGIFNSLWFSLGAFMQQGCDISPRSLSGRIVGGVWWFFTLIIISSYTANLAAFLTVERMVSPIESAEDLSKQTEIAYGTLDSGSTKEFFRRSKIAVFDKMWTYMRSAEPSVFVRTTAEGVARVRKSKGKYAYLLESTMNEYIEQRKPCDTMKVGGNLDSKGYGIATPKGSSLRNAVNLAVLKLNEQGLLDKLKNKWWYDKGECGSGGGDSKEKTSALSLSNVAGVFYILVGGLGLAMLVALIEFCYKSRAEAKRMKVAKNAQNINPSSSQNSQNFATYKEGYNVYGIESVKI
C-C chemokine receptor type 1 (Homo sapiens), sequence (P32246 whole entry): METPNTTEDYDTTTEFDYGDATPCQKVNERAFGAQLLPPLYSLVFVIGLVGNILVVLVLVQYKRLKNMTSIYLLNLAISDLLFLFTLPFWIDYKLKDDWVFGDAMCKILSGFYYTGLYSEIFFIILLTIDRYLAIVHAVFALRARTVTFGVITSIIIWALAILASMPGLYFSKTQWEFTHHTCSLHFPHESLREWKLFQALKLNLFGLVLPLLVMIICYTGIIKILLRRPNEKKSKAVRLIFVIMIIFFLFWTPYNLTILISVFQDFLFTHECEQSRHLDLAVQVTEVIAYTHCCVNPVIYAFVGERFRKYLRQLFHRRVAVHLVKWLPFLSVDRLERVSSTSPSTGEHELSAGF
Adenosine receptor A2a (Homo sapiens), sequence (P29274 whole entry): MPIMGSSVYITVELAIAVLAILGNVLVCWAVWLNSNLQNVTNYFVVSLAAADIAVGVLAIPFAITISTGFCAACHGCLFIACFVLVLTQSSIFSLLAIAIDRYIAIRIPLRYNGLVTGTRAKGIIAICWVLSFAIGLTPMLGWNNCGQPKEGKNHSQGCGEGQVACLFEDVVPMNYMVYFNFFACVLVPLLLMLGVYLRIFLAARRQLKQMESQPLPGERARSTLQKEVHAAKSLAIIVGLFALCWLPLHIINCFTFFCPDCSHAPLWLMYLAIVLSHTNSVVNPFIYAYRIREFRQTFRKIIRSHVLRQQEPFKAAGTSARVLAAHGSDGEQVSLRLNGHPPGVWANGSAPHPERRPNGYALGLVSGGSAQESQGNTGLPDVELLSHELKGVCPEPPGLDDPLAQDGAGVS
Thyrotropin-releasing hormone receptor (Homo sapiens), sequence (P34981 whole entry): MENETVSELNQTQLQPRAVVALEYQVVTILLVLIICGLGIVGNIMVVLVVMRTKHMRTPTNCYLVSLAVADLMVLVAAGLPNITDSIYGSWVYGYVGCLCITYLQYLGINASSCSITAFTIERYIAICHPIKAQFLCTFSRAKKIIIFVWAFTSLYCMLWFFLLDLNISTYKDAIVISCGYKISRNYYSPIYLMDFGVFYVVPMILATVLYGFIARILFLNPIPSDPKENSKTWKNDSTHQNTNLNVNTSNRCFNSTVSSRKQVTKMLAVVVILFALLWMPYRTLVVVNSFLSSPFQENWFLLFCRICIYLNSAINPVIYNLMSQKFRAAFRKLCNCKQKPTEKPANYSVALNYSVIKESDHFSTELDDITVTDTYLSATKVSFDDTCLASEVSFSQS
monoamine oxidase MAO-B, sequence (P27338 whole entry): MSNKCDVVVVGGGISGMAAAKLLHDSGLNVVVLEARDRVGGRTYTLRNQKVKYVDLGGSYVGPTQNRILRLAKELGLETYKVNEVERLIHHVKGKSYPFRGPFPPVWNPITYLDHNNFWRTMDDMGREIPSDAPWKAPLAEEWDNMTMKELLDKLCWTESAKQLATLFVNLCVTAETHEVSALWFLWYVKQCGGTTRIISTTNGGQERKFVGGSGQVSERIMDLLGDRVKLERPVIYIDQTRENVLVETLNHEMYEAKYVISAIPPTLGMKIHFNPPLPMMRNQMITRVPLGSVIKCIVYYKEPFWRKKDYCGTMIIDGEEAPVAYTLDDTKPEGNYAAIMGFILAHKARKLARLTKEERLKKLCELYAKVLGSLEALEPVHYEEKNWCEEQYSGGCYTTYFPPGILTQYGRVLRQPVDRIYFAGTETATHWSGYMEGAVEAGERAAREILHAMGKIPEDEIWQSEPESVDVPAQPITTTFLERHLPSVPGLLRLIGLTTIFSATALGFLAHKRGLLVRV
Estrogen receptor (Homo sapiens), sequence (P03372 whole entry): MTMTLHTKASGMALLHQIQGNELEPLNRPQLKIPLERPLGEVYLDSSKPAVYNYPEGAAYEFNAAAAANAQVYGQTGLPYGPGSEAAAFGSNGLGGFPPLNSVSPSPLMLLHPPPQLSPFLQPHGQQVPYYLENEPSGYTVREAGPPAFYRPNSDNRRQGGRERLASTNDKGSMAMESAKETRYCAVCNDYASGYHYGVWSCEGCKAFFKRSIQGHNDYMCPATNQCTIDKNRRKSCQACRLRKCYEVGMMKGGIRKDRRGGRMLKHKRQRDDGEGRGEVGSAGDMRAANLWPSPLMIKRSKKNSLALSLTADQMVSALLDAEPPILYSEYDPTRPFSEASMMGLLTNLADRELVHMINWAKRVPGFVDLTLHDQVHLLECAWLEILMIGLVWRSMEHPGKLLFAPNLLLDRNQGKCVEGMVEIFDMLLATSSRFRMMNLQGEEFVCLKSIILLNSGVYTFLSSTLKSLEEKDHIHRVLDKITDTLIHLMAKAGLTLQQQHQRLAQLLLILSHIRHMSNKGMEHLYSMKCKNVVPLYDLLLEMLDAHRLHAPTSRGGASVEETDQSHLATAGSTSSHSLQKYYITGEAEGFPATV
D(2) dopamine receptor (Homo sapiens), sequence (P14416 whole entry): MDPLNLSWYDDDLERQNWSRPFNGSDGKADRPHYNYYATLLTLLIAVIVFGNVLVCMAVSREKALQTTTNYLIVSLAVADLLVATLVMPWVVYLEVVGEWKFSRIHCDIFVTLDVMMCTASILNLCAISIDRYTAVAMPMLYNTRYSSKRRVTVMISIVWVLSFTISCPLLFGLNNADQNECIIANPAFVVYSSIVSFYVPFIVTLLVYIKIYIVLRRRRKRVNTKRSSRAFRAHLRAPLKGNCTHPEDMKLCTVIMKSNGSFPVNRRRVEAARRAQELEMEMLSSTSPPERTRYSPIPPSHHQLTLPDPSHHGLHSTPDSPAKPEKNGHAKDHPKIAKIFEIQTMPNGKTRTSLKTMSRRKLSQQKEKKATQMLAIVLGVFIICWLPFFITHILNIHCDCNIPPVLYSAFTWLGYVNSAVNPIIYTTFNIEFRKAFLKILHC
Caspase-6 (Homo sapiens), sequence (P55212 24-179 limits assumed): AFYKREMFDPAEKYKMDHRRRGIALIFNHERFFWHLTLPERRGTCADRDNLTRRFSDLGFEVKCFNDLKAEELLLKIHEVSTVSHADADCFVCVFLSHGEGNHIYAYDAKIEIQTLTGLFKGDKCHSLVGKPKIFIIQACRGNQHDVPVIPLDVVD
Caspase-6 (Homo sapiens), sequence (P55212 194-293 limits assumed): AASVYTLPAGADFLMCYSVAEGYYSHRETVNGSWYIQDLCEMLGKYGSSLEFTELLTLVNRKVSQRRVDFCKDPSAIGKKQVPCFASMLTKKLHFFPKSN

## N#CC1(c2ccccn2)CCN(Cc2cc(C(=O)O)c(=O)n3ccccc23)CC1 [MSD-M1PAM]
[1]
  inhibition: 0%
[2]
  inhibition: 6%
[3]
  inhibition: 33%
[4]
  inhibition at 60 min, 10 µM: -5% (not active)
[5]
  inhibition: 8%
[6]
  inhibition: -5%
[7]
  inhibition: -9%
[8]
  inhibition: -7%
[9]
  inhibition: 45%
[10]
  inhibition: 13%
[11]
  inhibition: -2%
[12]
  inhibition: -3%
[13]
  inhibition: -3%
[14]
  inhibition: -2%
[15]
  inhibition: 14%
[16]
  inhibition: 8%
[17]
  inhibition: -2%
[18]
  inhibition: 0%
[19]
  inhibition: -1%
[20]
  inhibition: 0%
[21]
  inhibition: 13%
[22]
  inhibition: 6%
[23]
  inhibition: 2%

From ChEMBL document CHEMBL4507295 (2021)
